Measured values as given in the supplement of paper PMC10331698.
± gives the standard deviation of the averaged measurements.

Assays:
Assay in all cases: level (log10 ratio to DMSO vehicle control); higher = higher biomarker level / cell amount than vehicle control
Details in all cases: in DMSO
[1] = compound: COC(=O)CCC(F)(F)C(F)(F)C(F)(F)C(F)(F)F [Methyl 2H,2H,3H,3H-perfluoroheptanoate]
Method: (§1)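 BioMAP Diversity Plus panel of 12 human primary cell co-culture systems (3C, 4H, LPS, SAg, BT, BF4T, BE3C, CASM3C, HDF3CGF, KF3CT, MyoF, Mphg). Compounds were added 1 h before stimulation and left for 24 h (MyoF 48 h; BT 72 h for soluble read-outs or 6 d for IgG). Biomarkers were read by ELISA, cytotoxicity by SRB, PBMC viability and proliferation by Alamar Blue. Each well value was divided by the mean of 8 DMSO control wells on the same plate and log10 transformed; duplicate blinded samples were tested at 4 concentrations.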

[2] = compound: C=C(C)C(=O)OCCC(F)(F)C(F)(F)C(F)(F)C(F)(F)C(F)(C(F)(F)F)C(F)(F)F [(Perfluoro-5-methylhexyl)ethyl 2-methylprop-2-enoate]
Method: as §1

Perfluoropropanoic acid = compound: O=C(O)C(F)(F)C(F)(F)F [Perfluoropropanoic acid]
Method: as §1

[3] = compound: C=CC(=O)OCC(F)(F)C(F)(F)C(F)(F)C(F)(F)C(F)(F)C(F)(F)C(F)(F)F [1H,1H-Perfluorooctyl acrylate]
Method: as §1

[4] = compound: FC(F)(F)C(F)(F)C(F)(F)C(F)(F)C(F)(F)C(F)(F)C(F)(F)C(F)(F)CCS [2-(Perfluorooctyl)ethanthiol]
Method: as §1

[5] = compound: OCC(F)(F)OC(F)(F)C(F)(F)OC(F)(F)CO [1H,1H,8H,8H-Perfluoro-3,6-dioxaoctane-1,8-diol]
Method: as §1

[6] = compound: C=CC(F)(F)C(F)(F)C(F)(F)C(F)(F)C(F)(F)C(F)(F)C(F)(F)C(F)(F)C=C [1,8-Divinylperfluorooctane]
Method: as §1

Test System | level (log10) ([1]; 6700 nM) | level (log10) ([1]; 20000 nM) | level (log10) ([1]; 60000 nM) | level (log10) ([2]; 6700 nM) | level (log10) ([2]; 20000 nM) | level (log10) (Perfluoropropanoic acid; 6700 nM) | level (log10) (Perfluoropropanoic acid; 20000 nM) | level (log10) (Perfluoropropanoic acid; 60000 nM) | level (log10) ([3]; 6700 nM) | level (log10) ([3]; 20000 nM) | level (log10) ([3]; 60000 nM) | level (log10) ([4]; 6700 nM) | level (log10) ([4]; 20000 nM) | level (log10) ([5]; 6700 nM) | level (log10) ([5]; 20000 nM) | level (log10) ([5]; 60000 nM) | level (log10) ([6]; 6700 nM) | level (log10) ([6]; 20000 nM)
3C:Proliferation | -0.035 ± 0.0028 | -0.029 ± 0.018 | 0.018 ± 0.03 | 0.004 ± 0.052 | -0.0305 ± 0.0021 | 0.019 ± 0.016 | 0.024 ± 0.073 | -0.051 ± 0.083 | -0.015 ± 0.017 | -0.0805 ± 0.032 | -0.214 ± 0.033 | 0.0355 ± 0.029 | -0.016 ± 0.013 | -0.066 ± 0.088 | 0.037 ± 0.035 | -0.0475 ± 0.064 | 0 ± 0.016 | 0 ± 0.013
BT:sTNF-alpha | 0.0125 ± 0.042 | -0.105 ± 0.055 | 0.0165 ± 0.12 | 0.0485 ± 0.1 | 0.0945 ± 0.03 | 0.0405 ± 0.06 | 0.058 ± 0.096 | -0.0255 ± 0.11 | -0.029 ± 0.027 | -0.0585 ± 0.044 | -0.19 ± 0.043 | 0.16 ± 0.015 | 0.065 ± 0.035 | 0.17 ± 0.053 | 0.023 ± 0.19 | -0.036 ± 0.1 | 0.016 ± 0.13 | 0.102 ± 0.081
BF4T:CCL2/MCP-1 | -0.0105 ± 0.019 | -0.0245 ± 0.039 | -0.002 ± 0.0085 | 0.012 ± 0.011 | 0.0275 ± 0.005 | -0.0125 ± 0.011 | -0.0095 ± 0.005 | 0.061 ± 0.083 | -0.0145 ± 0.0021 | -0.0405 ± 0.0078 | -0.027 ± 0.0014 | -0.0265 ± 0.029 | -0.031 ± 0.03 | 0.015 ± 0.028 | 0.012 ± 0.027 | 0.0085 ± 0.00071 | -0.007 ± 0.0028 | 0.014 ± 0.047
BT:PBMC Cytotoxicity | 0.032 ± 0.014 | 0.0045 ± 0.0092 | 0.0045 ± 0.021 | 0.004 ± 0.0057 | 0.007 ± 0.021 | -0.0215 ± 0.056 | -0.013 ± 0.027 | -0.005 ± 0.0085 | -0.032 ± 0.071 | -0.0405 ± 0.056 | -0.092 ± 0.068 | -0.0395 ± 0.012 | 0.02 ± 0.0028 | 0.003 ± 0.017 | -0.0035 ± 0.013 | -0.009 | 0.0285 ± 0.0035 | 0.019 ± 0.0042
4H:CD62P/P-selectin | -0.0325 ± 0.071 | -0.017 ± 0.064 | 0.0135 ± 0.053 | -0.017 ± 0.03 | -0.02 ± 0.028 | -0.0215 ± 0.0021 | -0.012 ± 0.0042 | 0.0105 ± 0.026 | 0.038 ± 0.05 | -0.0155 ± 0.018 | -0.047 ± 0.023 | 0.019 ± 0.0071 | -0.017 | 0.0225 ± 0.091 | 0.034 ± 0.055 | 0.0615 ± 0.046 | -0.009 ± 0.018 | -0.035 ± 0.064
BT:sIL-17A | -0.0765 ± 0.18 | 0.001 ± 0.11 | -0.0075 ± 0.064 | -0.19 ± 0.31 | -0.015 ± 0.15 | 0.0325 ± 0.0064 | -0.051 ± 0.12 | -0.065 ± 0.15 | -0.242 ± 0.26 | -0.141 ± 0.05 | -0.409 ± 0.18 | -0.0475 ± 0.022 | -0.05 ± 0.042 | 0.144 ± 0.073 | -0.0645 ± 0.022 | -0.128 ± 0.16 | -0.0055 ± 0.026 | 0.0625 ± 0.079
BE3C:CXCL9/MIG | -0.0025 ± 0.016 | -0.007 ± 0.0014 | -0.0095 ± 0.00071 | 0.009 ± 0.013 | 0.008 ± 0.0071 | -0.0005 ± 0.016 | 0.0035 ± 0.0078 | 0.0165 ± 0.023 | -0.002 ± 0.0085 | 0.0035 ± 0.016 | 0.0015 ± 0.0078 | -0.0085 ± 0.011 | -0.001 ± 0.011 | 0.0015 ± 0.0064 | -0.0025 ± 0.0035 | 0.0035 ± 0.005 | -0.001 ± 0.0014 | -0.005 ± 0.0028
3C:CXCL9/MIG | -0.011 ± 0.011 | -0.0115 ± 0.012 | -0.0055 ± 0.015 | -0.001 ± 0.011 | 0.0045 ± 0.0035 | -0.0005 ± 0.012 | 0.0025 ± 0.0064 | 0.0075 ± 0.019 | 0.0015 ± 0.0035 | -0.002 ± 0.014 | 0.0115 ± 0.005 | 0.002 | 0.0115 ± 0.005 | -0.0025 ± 0.005 | -0.004 ± 0.0071 | 0.0015 ± 0.011 | -0.0085 ± 0.0064 | 0.0025 ± 0.0092
SAg:CD62E/E-Selectin | -0.014 ± 0.014 | -0.03 ± 0.0071 | 0.007 ± 0.0057 | 0.0215 ± 0.011 | 0.007 ± 0.014 | 0.004 ± 0.013 | -0.0205 ± 0.016 | 0.0425 ± 0.023 | -0.0035 ± 0.0064 | -0.036 ± 0.0042 | -0.0335 ± 0.016 | -0.0115 ± 0.0064 | -0.0015 ± 0.022 | -0.0135 ± 0.0064 | -0.0185 ± 0.0064 | 0.0125 ± 0.044 | -0.0205 ± 0.012 | -0.0195 ± 0.005
SAg:CD40 | -0.042 ± 0.04 | -0.0415 ± 0.04 | -0.053 ± 0.065 | 0 ± 0.0071 | -0.0275 ± 0.028 | -0.045 ± 0.016 | -0.0335 ± 0.044 | -0.009 ± 0.031 | -0.005 | -0.001 ± 0.0028 | -0.02 ± 0.035 | 0.0105 ± 0.011 | 0.006 ± 0.011 | -0.003 ± 0.0057 | 0.0095 ± 0.013 | 0.004 ± 0.0042 | 0.0085 ± 0.015 | -0.022 ± 0.0028
SAg:PBMC Cytotoxicity | 0.033 ± 0.021 | 0.029 ± 0.058 | 0.029 ± 0.057 | -0.0255 ± 0.018 | 0.0155 ± 0.013 | -0.001 ± 0.013 | -0.0055 ± 0.0092 | 0.009 ± 0.044 | -0.004 ± 0.017 | 0.0125 ± 0.053 | -0.0535 ± 0.071 | -0.025 ± 0.023 | -0.0015 ± 0.0035 | 0.0055 ± 0.005 | 0.028 ± 0.089 | -0.033 ± 0.0042 | 0.017 ± 0.025 | 0.0425 ± 0.00071
4H:VEGFR2 | 0.0325 ± 0.013 | 0.0435 ± 0.03 | 0.0495 ± 0.069 | -0.0185 ± 0.037 | -0.0115 ± 0.033 | -0.0375 ± 0.026 | -0.011 ± 0.04 | 0.049 ± 0.042 | -0.0075 ± 0.0035 | 0.0045 ± 0.0064 | 0.0235 ± 0.019 | -0.0145 ± 0.026 | 0.0405 ± 0.074 | 0.011 ± 0.045 | 0.043 ± 0.044 | 0.0595 ± 0.049 | -0.0065 ± 0.056 | 0.053 ± 0.0085
BT:B cell Proliferation | -0.022 ± 0.023 | -0.019 ± 0.047 | -0.001 ± 0.05 | -0.027 ± 0.011 | 0.001 ± 0.017 | 0.0125 ± 0.044 | -0.041 ± 0.0085 | -0.002 ± 0.051 | -0.0405 ± 0.05 | -0.0195 ± 0.056 | -0.052 ± 0.048 | -0.007 ± 0.0057 | 0.038 ± 0.0042 | -0.011 ± 0.0071 | 0 ± 0.0014 | -0.0145 ± 0.0078 | 0.0035 ± 0.037 | 0.035 ± 0.0085
BT:sIL-6 | 0.0555 ± 0.035 | 0.007 ± 0.018 | -0.033 ± 0.038 | -0.0095 ± 0.025 | 0.0305 ± 0.073 | 0.021 ± 0.023 | -0.0015 ± 0.0035 | 0.035 ± 0.024 | -0.088 ± 0.0042 | -0.103 ± 0.031 | -0.242 ± 0.045 | 0.011 ± 0.042 | -0.02 ± 0.041 | 0.057 ± 0.0099 | 0.0215 ± 0.021 | -0.0445 ± 0.026 | 0.039 ± 0.016 | 0.0415 ± 0.071
BF4T:MMP-1 | 0.0015 ± 0.013 | -0.007 ± 0.0028 | 0.014 ± 0.021 | -0.0205 ± 0.0021 | -0.0095 ± 0.0021 | 0.003 ± 0.0071 | 0.0035 ± 0.029 | 0.009 ± 0.033 | 0.009 ± 0.021 | 0.0065 ± 0.0092 | 0.006 ± 0.0042 | 0.003 ± 0.0085 | 0.01 ± 0.0099 | 0.0115 ± 0.022 | 0.013 ± 0.028 | 0.0135 ± 0.026 | -0.0045 ± 0.005 | 0.0135 ± 0.035
LPS:CCL2/MCP-1 | -0.011 ± 0.013 | -0.013 ± 0.0071 | -0.0065 ± 0.00071 | 0.009 ± 0.021 | 0.0115 ± 0.028 | -0.011 ± 0.014 | -0.008 ± 0.031 | 0.019 ± 0.068 | -0.003 ± 0.017 | -0.0045 ± 0.005 | 0.005 ± 0.0099 | 0.018 | 0.026 ± 0.013 | -0.002 | -0.015 ± 0.0071 | 0.008 ± 0.0057 | 0.0065 ± 0.021 | 0.0145 ± 0.029
